Tests used:
Format in all cases: in vivo
[1] = tested on: Cyperus difformis; experiment: Test Example 3: herbicidal effect by application to foliage (Wagner pot, water depth 0.1-0.5 cm); details: Nineteenth Table; application to foliage; application herbicide amount 320 g/ha
Method in brief: (§1)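 Wagner pot foliar test: sow, grow 14 d (25–30 °C), spray diluted emulsion at set g/ha, score after 3 wk; 0 ≤5%, 5 ≥90% herbicidal ratio.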

[2] = tested on: Echinochloa crus-galli var. crus-galli; experiment: as above; details: Nineteenth Table; application to foliage; application herbicide amount 320 g/ha
Method in brief: as §1

[3] = tested on: Leptochloa chinensis; experiment: as above; details: Nineteenth Table; application to foliage; application herbicide amount 320 g/ha
Method in brief: as §1

[4] = tested on: directly sowed Oryza sativa; experiment: Test Example 3: effect on crop by application to foliage (Wagner pot, water depth 0.1-0.5 cm); details: Nineteenth Table; application to foliage; application herbicide amount 320 g/ha
Method in brief: as §1

[5] = tested on: Abutilon theophrasti; experiment: Test Example 4: herbicidal effect by application to foliage (diluvial soil, plastic box); details: foliage application, 320 g/ha
Method in brief: (§2)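 Plants were grown in sterilized diluvial soil in a greenhouse at 25-30° C for 14 days, then sprayed on stems and leaves with water-diluted emulsion formulation at set rates in g/ha. Weed control and crop injury were scored 3 weeks after treatment on a 0-5 herbicidal-ratio scale, from 0 (≤5%) to 5 (≥90%).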

[6] = tested on: Alopecurus myosuroides; experiment: as above; details: foliage application, 320 g/ha
Method in brief: as §2

[7] = tested on: Amaranthus retroflexus; experiment: as above; details: foliage application, 320 g/ha
Method in brief: as §2

[8] = tested on: Apera spica-venti.; experiment: as above; details: foliage application, 320 g/ha
Method in brief: as §2

[9] = tested on: Avena fatua; experiment: as above; details: foliage application, 320 g/ha
Method in brief: as §2

[10] = tested on: Chenopodium album; experiment: as above; details: foliage application, 320 g/ha
Method in brief: as §2

[11] = tested on: Digitaria ciliaris; experiment: as above; details: foliage application, 320 g/ha
Method in brief: as §2

[12] = tested on: Echinochloa crus-galli var. crus-galli; experiment: as above; details: foliage application, 320 g/ha
Method in brief: as §2

[13] = tested on: Galium spurium; experiment: as above; details: foliage application, 320 g/ha
Method in brief: as §2

[14] = tested on: Lolium multiflorum Lam.; experiment: as above; details: foliage application, 320 g/ha
Method in brief: as §2

[15] = tested on: Setaria viridis; experiment: as above; details: foliage application, 320 g/ha
Method in brief: as §2

[16] = tested on: Stellaria media; experiment: as above; details: foliage application, 320 g/ha
Method in brief: as §2

[17] = tested on: Veronica persica; experiment: as above; details: foliage application, 320 g/ha
Method in brief: as §2

| SMILES | E (herbicidal effect grade) [1] | H (herbicidal effect grade) [2] | D (herbicidal effect grade) [3] | b (effect on crop grade) [4] | M (Abutilon theophrasti) herbicidal effect grade [5] | J (Alopecurus myosuroides) herbicidal effect grade [6] | N (Amaranthus retroflexus) herbicidal effect grade [7] | L (Apera spica-venti.) herbicidal effect grade [8] | I (Avena fatua) herbicidal effect grade [9] | O (Chenopodium album) herbicidal effect grade [10] | F (Digitaria ciliaris) herbicidal effect grade [11] | H (Echinochloa crus-galli var. crus-galli) herbicidal effect grade [12] | Q (Galium spurium) herbicidal effect grade [13] | K (Lolium multiflorum Lam.) herbicidal effect grade [14] | G (Setaria viridis) herbicidal effect grade [15] | P (Stellaria media) herbicidal effect grade [16] | R (Veronica persica) herbicidal effect grade [17] |
| --- | --- | --- | --- | --- | --- | --- | --- | --- | --- | --- | --- | --- | --- | --- | --- | --- | --- |
| COc1ccccc1-c1nnc2c(C(=O)Nc3nnnn3C)ccc(C(F)(F)F)n12 [2-045] | 5 (Herbicidal ratio of 90% or more (almost completely withered)) | 5 (Herbicidal ratio of 90% or more (almost completely withered)) | 5 (Herbicidal ratio of 90% or more (almost completely withered)) | 5 (Herbicidal ratio of 90% or more (almost completely withered)) | 5 (Herbicidal ratio of 90% or more (almost completely withered)) | 1 (Herbicidal ratio of 5% or more and less than 20%) | 5 (Herbicidal ratio of 90% or more (almost completely withered)) | 3 (Herbicidal ratio of 40% or more and less than 70%) | 2 (Herbicidal ratio of 20% or more and less than 40%) | 5 (Herbicidal ratio of 90% or more (almost completely withered)) | 5 (Herbicidal ratio of 90% or more (almost completely withered)) | 5 (Herbicidal ratio of 90% or more (almost completely withered)) | 3 (Herbicidal ratio of 40% or more and less than 70%) | 1 (Herbicidal ratio of 5% or more and less than 20%) | 4 (Herbicidal ratio of 70% or more and less than 90%) | 5 (Herbicidal ratio of 90% or more (almost completely withered)) | 5 (Herbicidal ratio of 90% or more (almost completely withered)) |
| COC(=O)Cn1nnnc1NC(=O)c1ccc(C(F)(F)F)n2c(C(C)C)nnc12 [2-046] | 3 (Herbicidal ratio of 40% or more and less than 70%) | 2 (Herbicidal ratio of 20% or more and less than 40%) | 3 (Herbicidal ratio of 40% or more and less than 70%) | 0 (Herbicidal ratio of 5% or less (almost no effect)) | 4 (Herbicidal ratio of 70% or more and less than 90%) | 0 (Herbicidal ratio of 5% or less (almost no effect)) | 4 (Herbicidal ratio of 70% or more and less than 90%) | 0 (Herbicidal ratio of 5% or less (almost no effect)) | 0 (Herbicidal ratio of 5% or less (almost no effect)) | 4 (Herbicidal ratio of 70% or more and less than 90%) | 0 (Herbicidal ratio of 5% or less (almost no effect)) | 3 (Herbicidal ratio of 40% or more and less than 70%) | 1 (Herbicidal ratio of 5% or more and less than 20%) | 0 (Herbicidal ratio of 5% or less (almost no effect)) | 1 (Herbicidal ratio of 5% or more and less than 20%) | 2 (Herbicidal ratio of 20% or more and less than 40%) | 1 (Herbicidal ratio of 5% or more and less than 20%) |
| CC(C)c1nnc2c(C(=O)Nc3nnnn3C)ccc(C(F)F)n12 [2-047] | 5 (Herbicidal ratio of 90% or more (almost completely withered)) | 4 (Herbicidal ratio of 70% or more and less than 90%) | 5 (Herbicidal ratio of 90% or more (almost completely withered)) | 3 (Herbicidal ratio of 40% or more and less than 70%) | 5 (Herbicidal ratio of 90% or more (almost completely withered)) | 1 (Herbicidal ratio of 5% or more and less than 20%) | 5 (Herbicidal ratio of 90% or more (almost completely withered)) | 3 (Herbicidal ratio of 40% or more and less than 70%) | 3 (Herbicidal ratio of 40% or more and less than 70%) | 5 (Herbicidal ratio of 90% or more (almost completely withered)) | 5 (Herbicidal ratio of 90% or more (almost completely withered)) | 5 (Herbicidal ratio of 90% or more (almost completely withered)) | 3 (Herbicidal ratio of 40% or more and less than 70%) | 1 (Herbicidal ratio of 5% or more and less than 20%) | 3 (Herbicidal ratio of 40% or more and less than 70%) | 4 (Herbicidal ratio of 70% or more and less than 90%) | 5 (Herbicidal ratio of 90% or more (almost completely withered)) |
| CN(C)c1nnc2c(C(=O)Nc3nnnn3C)ccc(C(F)(F)F)n12 [2-051] | 5 (Herbicidal ratio of 90% or more (almost completely withered)) | 5 (Herbicidal ratio of 90% or more (almost completely withered)) | 5 (Herbicidal ratio of 90% or more (almost completely withered)) | 4 (Herbicidal ratio of 70% or more and less than 90%) | 5 (Herbicidal ratio of 90% or more (almost completely withered)) | 4 (Herbicidal ratio of 70% or more and less than 90%) | 5 (Herbicidal ratio of 90% or more (almost completely withered)) | 5 (Herbicidal ratio of 90% or more (almost completely withered)) | 5 (Herbicidal ratio of 90% or more (almost completely withered)) | 5 (Herbicidal ratio of 90% or more (almost completely withered)) | 5 (Herbicidal ratio of 90% or more (almost completely withered)) | 5 (Herbicidal ratio of 90% or more (almost completely withered)) | 5 (Herbicidal ratio of 90% or more (almost completely withered)) | 4 (Herbicidal ratio of 70% or more and less than 90%) | 5 (Herbicidal ratio of 90% or more (almost completely withered)) | 5 (Herbicidal ratio of 90% or more (almost completely withered)) | 5 (Herbicidal ratio of 90% or more (almost completely withered)) |
